# In article PMC7768359, “Synthesis of Platinum(II) Complexes with Some 1-Methylnitropyrazoles and In Vitro Research on Their Cytotoxic Activity” (Pharmaceuticals, 2020):
# How the values were obtained:
# HL-60 cells = test: Determination of apoptosis by Annexin V / PI staining; type: cell-based, human; conditions: 48 h
# Procedure: To establish how compounds 1 and 2 influence the cell cycle and cell death, the HL-60 human promyelocytic leukemia cell line was used. The results are outlined in the Figure 7 and Figure 8, respectively. […] This led to disturbances in the cell cycle progression, expressed as a significant decrease in G0/G1 and S phase, compared to the untreated control (Figure 7).
# The HL-60 cells and compounds tested were prepared in the same way as for analysis of the cell cycle distribution. The cells were also exposed to camptothecin (2 µg/mL; Sigma-Aldrich, Steinheim, Germany) as a positive control of apoptosis induction. After 48 h of incubation, or in the case of camptothecin after 24 h, the cells were collected and washed in PBS (HIIET, Wroclaw, Poland) supplemented with 2% of fetal bovine serum and counted in a hemacytometer. The cells (2 × 10^5) were washed twice in PBS. Next, cells were suspended in 200 μL of the mixture of HEPES buffer: 10 mM HEPES, 150 mM NaCl, 5 mM KCl, 1 mM MgCl2, 1.8 mM CaCl2, (HIIET, Wroclaw, Poland) and Annexin V-FITC (Alexis Biochemicals, San Diego, CA, USA), each time freshly prepared according to the manufacturer’s recommendations. After 15 min of incubation in darkness at room temperature, propidium iodide (PI) solution (0.1 mg/mL) was added prior to analysis to give a final concentration of 10 µg/mL. […] Data were analyzed in a BD FACS Diva 6.2 program. […]
# [1] = Reaction with L-glutathione, UV absorbance at 260 nm; type: physicochemical; conditions: 2 mM GSH, pH 7.4, 37 °C
# From the text: Platinum compounds have a strong ability to react with sulfur donor ligands. […] These side reactions are considered as playing an important role in mechanisms of tumor resistance to platinum drugs, their inactivation, and toxic side effects. The two most important endogenous thiols to which platinum complexes can bind after intravenous administration or after they enter the cancer cell are reduced L-glutathione (GSH) and metallothionein (MT). In the present work, we investigated reactions of GSH with compounds 1 and 2, measuring the UV absorbance at 260 nm (which indicates the formation of Pt–S and S–S bonds) as a function of time using a double-beam spectrophotometer (Figure 6). […] Despite the better solubility of tested complexes in acetone, dioxane was used in this experiment due to its lack of absorption of UV radiation at 260 nm in contrast to acetone that strongly absorbs at this wavelength preventing a correct measurement of absorbance changes.
# The solutions of compounds 1 or 2 in dioxane (30 µL) at 60 mM concentration were added to 3 mL of 2 mM solution of GSH (reduced L-glutathione) previously saturated with argon in the medium containing 10 mmol/L NaCl and 10 mmol/L Tris xHCl buffer, pH 7.4, warmed to 37 °C, reaching a final concentration of […] of the platinum complex. The reaction progress during incubation at 37 °C was monitored using UV absorption spectrometry at 260 nm. […]
# [2] = Isomerization of complexes in solution; type: physicochemical; conditions: chloroform, acetone, DMSO, DMF
# From the text: Additionally, it is worth adding that complexation with 1-methyl-3-nitropyrazole, was unsuccessful, probably because of the steric hindrance of both methyl and nitro groups that constrain access to free pair of electrons of pyrazole nitrogen. Besides, the electrostatic repelling of the approaching tetrachloroplatinate anion by electron dense oxygen atoms of the nitro group may also be an important factor that can hinder and/or prevent the formation of a complex. […] The reason is that both symmetric and antisymmetric valence vibrations of cis Pt(II)complexes are active, contrary to trans isomers in which case only antisymmetric vibration is active.
# A solution of 254 mg (2 mmol) of 1-methyl-5-nitropyrazole in 3 mL of acetone was mixed with a solution of 415 mg (1 mmol) of K2PtCl4 in 5 mL of water and maintained in darkness at 25 °C until the reaction completion (TLC, app. 3 days). […] Combustion and spectral analyses for the cis complex 3: Elemental analysis for formula C8H10N6O4Cl2Pt of compound 3: Calculated/Found (%): C 18.47/17.97, H 1.94/1.66, N 16.16/16.50, Cl 13.63/13.87. ^1H NMR (300.15 MHz, acetone-d6): δ[ppm] […] Combustion and spectral analyses for the trans complex 4: Elemental analysis for formula C8H10N6O4Cl2Pt of trans-complex 4: Calculated/Found (%): C 18.47/18.14, H 1.94/1.65, N 16.16/15.89, Cl 13.63/13.82. ^1H NMR (300.15 MHz, acetone-d6): δ[ppm] […]
SMILES,"proapoptotic activity (Annexin V / propidium iodide) (HL-60 cells; HL-60, 80 µM)",half-time of the reaction with GSH [1] [min],effect on the number of necrotic and late apoptotic HL-60 cells (HL-60 cells; compared to 0.3 µM cisplatin and control),isomerization in solution [2]
"Cn1cc([N+](=O)[O-])c[n+]1[Pt@SP2-2]([Cl])([Cl])[n+]1cc([N+](=O)[O-])cn1C [Compound 1, cis-dichloridobis(1-methyl-4-nitropyrazole)platinum(II)]",statistically significant increase in early and late apoptotic cells,83,–,–
"Cn1cc([N+](=O)[O-])c[n+]1[Pt@SP3-2]([Cl])([Cl])[n+]1cc([N+](=O)[O-])cn1C [Compound 2, trans-dichloridobis(1-methyl-4-nitropyrazole)platinum(II)]",–,13,did not show any substantial effect,–
"Cn1c([N+](=O)[O-])cc[n+]1[Pt@SP2-2]([Cl])([Cl])[n+]1ccc([N+](=O)[O-])n1C [Compound 3, cis-dichloridobis(1-methyl-5-nitropyrazole)platinum(II)]",–,–,–,"occurred slowly in chloroform or acetone solutions but much faster in more polar aprotic solvents (DMSO, DMF)"
"Cn1c([N+](=O)[O-])cc[n+]1[Pt@SP3-2]([Cl])([Cl])[n+]1ccc([N+](=O)[O-])n1C [Compound 4, trans-dichloridobis(1-methyl-5-nitropyrazole)platinum(II)]",–,–,–,"occurred slowly in chloroform or acetone solutions but much faster in more polar aprotic solvents (DMSO, DMF)"
